# Data reported in paper PMC2064598 (The Journal of Cell Biology, 2006).
# Experiments:
# hGrA = molecular target: T1, hGrA (Homo sapiens, UniProt P12544); test: absorbance progress curve; assay type: biochemical
# T1 sequence (P12544 29-262): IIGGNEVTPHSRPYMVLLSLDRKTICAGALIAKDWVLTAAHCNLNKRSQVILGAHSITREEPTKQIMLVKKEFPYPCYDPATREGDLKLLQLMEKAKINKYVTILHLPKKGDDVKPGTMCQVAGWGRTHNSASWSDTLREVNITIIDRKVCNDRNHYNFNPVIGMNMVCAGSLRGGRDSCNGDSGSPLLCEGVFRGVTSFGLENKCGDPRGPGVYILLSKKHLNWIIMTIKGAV
# mGrA = molecular target: T2, mGrA (Mus musculus, UniProt P11032); test: absorbance progress curve; assay type: biochemical
# T2 sequence (P11032 29-260): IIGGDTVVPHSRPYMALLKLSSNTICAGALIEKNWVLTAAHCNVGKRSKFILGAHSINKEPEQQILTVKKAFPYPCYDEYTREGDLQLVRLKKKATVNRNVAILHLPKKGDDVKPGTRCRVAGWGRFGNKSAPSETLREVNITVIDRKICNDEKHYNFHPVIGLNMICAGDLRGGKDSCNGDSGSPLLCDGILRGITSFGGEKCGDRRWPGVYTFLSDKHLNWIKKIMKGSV
smiles,measurement,setting,value
NCCCC[C@H](NC(=O)OCc1ccccc1)C(=O)SCc1ccccc1 [benzyloxy-carbonyl-Lys-thiobenzyl ester],specific activity,hGrA,Progress curves of mGrA (closed boxes) and hGrA (open boxes) cleaving benzyloxy-carbonyl-Lys-thiobenzyl ester
same,specific activity,mGrA,Progress curves of mGrA (closed boxes) and hGrA (open boxes) cleaving benzyloxy-carbonyl-Lys-thiobenzyl ester
